These results are taken from US20240415785A1, “USE OF D-ARABITOL IN LIPID-LOWERING AND HEPATOPROTECTION” (NANJING UNIVERSITY OF CHINESE MEDICINE, priority 2022, published 2024).

Common to all, as to assay type: in vivo
The subject of data set [1] is C57 BL/6 J male mice with the high-fat diet. The experiment in a line: Body weight ratio of mice with the high-fat diet. The conditions noted are these: high-fat feed, 12 weeks, compared with model group. How it is done: (§1) D-arabitol, L-arabitol, L-arabinose, D-arabinose, and D-xylitol each were prepared with sterile distilled water into a 50 g/L or 20 g/L solution.
(§2) A total of 64 SPF-grade 8-week-old C57 BL/6 J male mice were adaptively raised for 3 d with a normal diet in a barrier facility having an independently-ventilated cage (IVC), tested for an initial body weight, and randomly divided into 8 groups. On day 4, the mice in the 8 groups were administered with a normal feed or a high-fat feed, and drinking water for mice in an administration group was replaced with drug-containing water. Each mouse had free access to food and drinking water, and a body weight was recorded weekly. The grouping, diets, and administration were as follows: • (1) normal diet group (Chow): normal feed+sterile distilled water; • (2) high-fat diet group (HFD): high-fat feed+sterile distilled water; • (3) 50 g/L L-arabitol group (HFD+50 g/L L-Arabitol): high-fat feed+50 g/L L-arabitol; • (4) 20 g/L D-arabitol group (HFD+20 g/L D-Arabitol): high-fat feed+20 g/L D-arabitol; • (5) 50 g/L D-arabitol group (HFD+50 g/L D-Arabitol): high-fat feed+50 g/L D-arabitol; • (6) 50 g/L L-arabinose group (HFD+50 g/L L-Arabinose): high-fat feed+50 g/L L-arabinose; • (7) 50 g/L D-arabinose group (HFD+50 g/L D-Arabinose): high-fat feed+50 g/L D-arabinose; and • (8) 50 g/L xylitol group (HFD+50 g/L Xylitol): high-fat feed+50 g/L xylitol.
Mouse body weight ratio: a body weight at the nth week (g)×100%/an initial body weight (g). Data was subjected to statistical tests with Graphpad Prism v9.0. Two-way ANOVA and Tukey's multiple comparison tests were adopted for body weight data, and one-way ANOVA and Dunnett's multiple comparison tests were adopted for other data.

The test system of data set [2] is patient with a high blood or liver lipid level. Description: Lipid-lowering method in patient or individual with a high blood or liver lipid level. From the text:
A lipid-lowering method was provided, including: a drug was orally administered to or injected into a patient with a high blood or liver lipid level, where an active ingredient of the drug was D-arabitol.
A lipid-lowering method was provided, including: an individual with a high blood or liver lipid level was allowed to take a health care product or a food, where the health care product or the food included D-arabitol as an active ingredient.

Data set [3] relates to C57 BL/6 J male mice with the high-fat diet. Description: Total cholesterol (TC) level in liver of mice with the high-fat diet. As to conditions: high-fat feed 12 weeks, compared with high-fat diet group. How it is done: as §1
as §2, with “xylitol. […]” for “xylitol.”

Data set [4] shares this test system. Description: Serum ALT level of mice with the high-fat diet. The conditions noted are these: high-fat feed 12 weeks, compared with high-fat diet group. How it is done: as §1
as §2, with “xylitol. […]” for “xylitol.”

For data set [5], the system named is patient with a liver damage caused by a high blood or liver lipid level. Description: Hepatoprotection method in patient or individual with a liver damage caused by a high blood or liver lipid level. The source says:
A hepatoprotection method was provided, including: a drug was orally administered to or injected into a patient with a liver damage caused by a high blood or liver lipid level, where an active ingredient of the drug was D-arabitol.
A hepatoprotection method was provided, including: an individual with a liver damage caused by a high blood or liver lipid level was allowed to take a health care product or a food, where the health care product or the food included D-arabitol as an active ingredient.

In data set [6] the test system is C57 BL/6 J male mice with the high-fat diet. The experiment in a line: Liver histopathology (H&E staining) of mice with the high-fat diet. As to conditions: high-fat feed. How it is done: as §1, §2
(§3) At the end of the experiment, each mouse was anesthetized by intraperitoneal injection of sodium pentobarbital with a concentration of 5 mg/mL, the injection volume was 0.1 mL/10 g, and the injection dose was 50 mg/kg, and then blood was collected from the orbit. The mouse was sacrificed through cervical dislocation, and a liver was collected, rinsed with normal saline, and dried with a filter paper. A liver lobe was taken and fixed in paraformaldehyde. The remaining liver was quickly frozen with liquid nitrogen, and stored at −80° C. The blood was allowed to stand for 30 min and then centrifuged at 3,500 rpm for 10 min to obtain a supernatant, and the supernatant was collected and stored at −80° C.
A liver tissue that had been fixed with 4% paraformaldehyde was taken and subjected to gradient dehydration in the dehydrator as follows: in 75% ethanol for 4 h, in 85% ethanol for 2 h, in 90% ethanol for 2 h, in 95% ethanol for 1 h, in absolute ethanol I for 30 min, and in absolute ethanol II for 30 min. A tissue obtained after complete dehydration was permeabilized 1 time with a mixed solution of absolute ethanol and xylene mixed in equal volumes, and then permeabilized 2 times with pure xylene for about 5 min to 10 min each time. […]

Data set [7] shares this test system. Description: Blood lipid levels (total TG, LDL-c, HDL-c) in serum of mice with the high-fat diet. The conditions noted are these: high-fat feed, compared with high-fat diet group. How it is done:
as §1, §2, §3
A serum sample was taken, thawed at 4° C., and tested for serum HDL-c, LDL-c, total TG, ALT, and aspartate aminotransferase (AST) according to instructions of kits.

Take `OC[C@@H](O)C(O)[C@H](O)CO` [D-arabitol]: the body weight ratio entry in data set [1] (20 g/L in drinking water) was “start to significantly decrease from week 8”; in data set [1] (50 g/L in drinking water), “start to significantly decrease from week 4”. Further, the “blood or liver lipid level in the patient” value in data set [2] (drug orally administered or injected, patient with a high blood or liver lipid level (Example 2)) is on record as “decreased effectively”. Moreover, the “blood or liver lipid level in the individual” value in data set [2] (health care product or food taken by individual with a high blood or liver lipid level (Example 4)) is “decreased effectively”. Moreover, the “accumulation of TC in the liver” value in data set [3] (20 g/L in drinking water) and in data set [3] (50 g/L in drinking water) was “significantly reduce” in each case. For the same molecule, the “serum ALT concentration” value in data set [4] (20 g/L in drinking water) and in data set [4] (50 g/L in drinking water) was “significantly reduce” each time. Moreover, in data set [5] (drug orally administered or injected, patient with a liver damage caused by a high blood or liver lipid level (Example 3)), the “liver function in the patient” value is recorded as “improved effectively”. Moreover, the “liver function in the individual” value in data set [5] (health care product or food taken by individual with a liver damage caused by a high blood or liver lipid level (Example 5)) is reported as “improved effectively”. The “white vacuoles (lipid droplets) in the liver tissue, H&E staining” value in data set [6] (20 g/L in drinking water) and in data set [6] (50 g/L in drinking water) was “no obvious white vacuoles” in each case. In addition, the “HDL-c concentration in serum” value in data set [7] (20 g/L in drinking water) and in data set [7] (50 g/L in drinking water) was “significantly reduce” throughout. Moreover, the “LDL-c concentration in serum” value in data set [7] (20 g/L in drinking water) and in data set [7] (50 g/L in drinking water) was “significantly reduce” throughout. Further, the “total TG in serum” value in data set [7] (50 g/L in drinking water) is recorded as “decreased significantly”.

For the molecule `OC[C@@H](O)[C@H](O)[C@@H](O)CO` [xylitol, Xylitol], the body weight ratio result in data set [1] (50 g/L in drinking water) is reported as “did not have an effect of making a body weight ratio of mice significantly decrease”.

For the molecule `OC[C@H](O)C(O)[C@@H](O)CO` [L-arabitol, reference compound], the body weight ratio result in data set [1] (50 g/L in drinking water) is listed as “did not have an effect of making a body weight ratio of mice significantly decrease”. Also, in data set [6] (50 g/L in drinking water), the “liver cell structures, H&E staining (liver damage)” value was “liver cell structures disappeared” and the “white vacuoles (lipid droplets) in the liver tissue, H&E staining” value is given as “no significant white vacuoles”.

Turning to `O=C[C@@H](O)[C@H](O)[C@H](O)CO` [D-arabinose], the body weight ratio entry in data set [1] (50 g/L in drinking water) is “did not have an effect of making a body weight ratio of mice significantly decrease”.

For the molecule `O=C[C@H](O)[C@@H](O)[C@@H](O)CO` [L-arabinose], the body weight ratio result in data set [1] (50 g/L in drinking water) is listed as “did not have an effect of making a body weight ratio of mice significantly decrease”.
